target: T1, Adenosine receptor A1 (Rattus norvegicus, UniProt P25099); assay: Affinity against Adenosine A1 receptor in rat brain using [3H]- PIA as radioligand; type: tissue-based; details: not given
T1 sequence (P25099 whole entry): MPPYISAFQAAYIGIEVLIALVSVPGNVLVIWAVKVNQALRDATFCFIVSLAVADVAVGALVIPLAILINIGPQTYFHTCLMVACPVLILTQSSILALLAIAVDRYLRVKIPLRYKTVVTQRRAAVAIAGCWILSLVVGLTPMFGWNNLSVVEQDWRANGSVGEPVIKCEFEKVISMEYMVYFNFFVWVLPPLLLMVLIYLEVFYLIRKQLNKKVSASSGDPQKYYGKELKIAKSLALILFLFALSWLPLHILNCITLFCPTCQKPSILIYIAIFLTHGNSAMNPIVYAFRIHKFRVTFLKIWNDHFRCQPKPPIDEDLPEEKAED

Compound	Ki
COc1cccc2cc(-c3nc4c(=O)n(C)c(=O)n(C)c4[nH]3)oc12	1770 nM
COc1cc(/C=C/c2nc3c(=O)n(C)c(=O)n(C)c3[nH]2)cc(OC)c1OC	2280 nM
Cn1c(=O)c2c(nc(/C=C/c3cccc(NC(=O)OC(C)(C)C)c3)n2C)n(C)c1=O	23600 nM
C=CCn1c(=O)c2c(nc(/C=C/c3cc(OC)c(OC)c(OC)c3)n2C)n(CC=C)c1=O	1930 nM
COc1cc(/C=C/c2nc3c(c(=O)n(C)c(=O)n3C)n2C)cc(OC)c1OC	9200 nM

target: Adenosine A2 receptor (Rattus norvegicus, UniProt P29276+P30543); assay: Binding affinity against adenosine A2 receptor in rat brain using [3H]- CGS 21680 as radioligand; type: tissue-based; details: not given

Compound	Ki
CCn1c(/C=C/c2cc(OC)c(OC)c(OC)c2)nc2c1c(=O)n(C)c(=O)n2C	882 nM
Cn1c(=O)c2nc(/C=C/c3cccc(C(F)(F)F)c3)[nH]c2n(C)c1=O	343 nM
COc1cc(/C=C/c2nc3c(c(=O)n(C)c(=O)n3C)n2C)cc(OC)c1OC/C=C/CN	228 nM
COc1cc(/C=C/c2nc3c(c(=O)n(C)c(=O)n3C)n2CCc2ccccc2)cc(OC)c1OC	14 nM
COc1cc(/C=C/c2nc3c(c(=O)n(C)c(=O)n3C)n2C)cc(OC)c1O	450 nM
CCCn1c(=O)c2c(nc(/C=C/c3cc(F)cc(F)c3)n2C)n(CCC)c1=O	53 nM
Cn1c(=O)c2c(nc(/C=C/c3cccc(F)c3)n2C)n(C)c1=O	83 nM
Cn1c(=O)c2nc(/C=C/c3cccc(F)c3)[nH]c2n(C)c1=O	516 nM
CCCn1c(=O)c2nc(/C=C/c3cccc(F)c3)[nH]c2n(CCC)c1=O	153 nM
Cn1c(=O)c2nc(/C=C/c3ccccc3)[nH]c2n(C)c1=O	291 nM
COc1cc(/C=C/c2nc3c(c(=O)n(C)c(=O)n3C)n2C)cc(OC)c1OCc1ccccc1	139 nM
Cn1c(=O)c2nc(/C=C/c3cccc(N)c3)[nH]c2n(C)c1=O	202 nM
COc1ccc(/C=C/c2nc3c(c(=O)n(C)c(=O)n3C)n2C)c(OC)c1OC	206 nM
COc1cc(/C=C/c2nc3c(c(=O)n(C)c(=O)n3C)n2C)cc(OC)c1OCCCCN	173 nM
Cn1c(=O)c2c(nc(/C=C/c3cccc(N(C(=O)OC(C)(C)C)C(=O)OC(C)(C)C)c3)n2C)n(C)c1=O	740 nM
COc1cc(/C=C/c2nc3c(c(=O)n(C)c(=O)n3C)n2C)cc(OC)c1OC(C)=O	68 nM
COc1cc(/C=C/c2nc3c(c(=O)n(C)c(=O)n3C)n2C)cc(OC)c1	75.3 nM
Cn1c(=O)c2c(nc(/C=C/c3cccc(C(F)(F)F)c3)n2C)n(C)c1=O	134 nM
COc1cc(/C=C/c2nc3c(c(=O)n(C)c(=O)n3C)n2C)cc(OC)c1OC/C=C/CNC(=O)OC(C)(C)C	353 nM
CCCn1c(=O)c2c(nc(/C=C/c3cccc(F)c3)n2C)n(CCC)c1=O	33 nM
CCCn1c(=O)c2c(nc(/C=C/c3cccc(N)c3)n2C)n(CCC)c1=O	18.9 nM

Compound	Ki
COc1cccc2cc(-c3nc4c(=O)n(C)c(=O)n(C)c4[nH]3)oc12	3900 nM
CCCn1c(=O)c2c(nc(/C=C/c3cc(OC)c(OC)cc3OC)n2C)n(CCC)c1=O	327 nM
Cn1c(=O)c2c(nc(/C=C/c3cccc(NC(=O)OC(C)(C)C)c3)n2C)n(C)c1=O	784 nM
Cn1c(=O)c2c(nc(CCc3cccc(N)c3)n2C)n(C)c1=O	18000 nM
Cn1c(=O)c2nc(/C=C/c3cccc([N+](=O)[O-])c3)[nH]c2n(C)c1=O	438 nM
CCCn1c(=O)c2nc(/C=C/c3cc(OC)cc(OC)c3)[nH]c2n(CCC)c1=O	210 nM
COc1cccc(/C=C/c2nc3c(=O)n(C)c(=O)n(C)c3[nH]2)c1OC	600 nM
COc1cccc(/C=C/c2nc3c(c(=O)n(C)c(=O)n3C)n2C)c1	84.8 nM
Cn1c(=O)c2c(nc(/C=C/c3cccc([N+](=O)[O-])c3)n2C)n(C)c1=O	195 nM
CCCn1c(=O)c2c(nc(/C=C/c3cccc([N+](=O)[O-])c3)n2C)n(CCC)c1=O	56.2 nM
Cn1c(=O)c2nc(/C=C/c3cccc(O)c3)[nH]c2n(C)c1=O	303 nM
Cn1c(=O)c2nc(/C=C/c3cc(F)cc(F)c3)[nH]c2n(C)c1=O	366 nM
COc1cc(/C=C/c2nc3c(c(=O)n(C)c(=O)n3C)n2C)cc(OC)c1OCCCCNC(=O)OC(C)(C)C	265 nM
Cn1c(=O)c2c(nc(/C=C/c3cc(F)cc(F)c3)n2C)n(C)c1=O	65 nM
CCCn1c(=O)c2nc(/C=C/c3cc(OC)c(OC)cc3OC)[nH]c2n(CCC)c1=O	323 nM
COc1cccc(/C=C/c2nc3c(=O)n(C)c(=O)n(C)c3[nH]2)c1	378 nM
COc1ccc(/C=C/c2nc3c(c(=O)n(C)c(=O)n3C)n2C)cc1OC	197 nM
COc1ccc(/C=C/c2nc3c(c(=O)n(C)c(=O)n3C)n2C)cc1	327 nM
CN(C)c1ccc(/C=C/c2nc3c(=O)n(C)c(=O)n(C)c3[nH]2)cc1	12800 nM
COc1cccc(/C=C/c2nc3c(c(=O)n(C)c(=O)n3C)n2C)c1OC	716 nM
CC(=O)Nc1cccc(/C=C/c2nc3c(c(=O)n(C)c(=O)n3C)n2C)c1	39 nM

Compound	Ki
COc1ccc(/C=C/c2nc3c(=O)n(C)c(=O)n(C)c3[nH]2)cc1	472 nM
CCCn1c(=O)c2nc(/C=C/c3ccc(OC)c(OC)c3OC)[nH]c2n(CCC)c1=O	64 nM
CCCn1c(=O)c2c(nc(/C=C/c3cc(OC)cc(OC)c3)n2C)n(CCC)c1=O	24 nM
CCCn1c(=O)c2nc(/C=C/c3cc(F)cc(F)c3)[nH]c2n(CCC)c1=O	346 nM
COc1cc(/C=C/c2nc3c(c(=O)n(C)c(=O)n3C)n2C)cc(OC)c1OC/C=C/CNC(C)=O	216 nM
COc1cc(/C=C/c2nc3c(=O)n(C)c(=O)n(C)c3[nH]2)cc(OC)c1	120 nM
Cn1c(=O)c2c(nc(/C=C/c3cccc(N)c3)n2C)n(C)c1=O	57 nM
COc1ccc(/C=C/c2nc3c(=O)n(C)c(=O)n(C)c3[nH]2)cc1OC	1100 nM
CCn1c(=O)c2nc(/C=C/c3cc(OC)c(OC)c(OC)c3)[nH]c2n(CC)c1=O	269 nM
CCCn1c(=O)c2nc(/C=C/c3ccccc3)[nH]c2n(CCC)c1=O	44 nM
CCCn1c(=O)c2c(nc(/C=C/c3ccc(OC)c(OC)c3OC)n2C)n(CCC)c1=O	68.5 nM
COc1ccccc1/C=C/c1nc2c(=O)n(C)c(=O)n(C)c2[nH]1	645 nM
Cn1c(=O)c2c(nc(/C=C/c3cccc(NC(=O)CCC(=O)O)c3)n2C)n(C)c1=O	143 nM
Cn1c(=O)c2nc(/C(F)=C/c3ccccc3)[nH]c2n(C)c1=O	2110 nM
CCCn1c(=O)c2nc(/C=C/c3cccc(Cl)c3)[nH]c2n(CCC)c1=O	216 nM
C#CCn1c(/C=C/c2cc(OC)c(OC)c(OC)c2)nc2c1c(=O)n(C)c(=O)n2C	525 nM
COc1ccccc1/C=C/c1nc2c(c(=O)n(C)c(=O)n2C)n1C	267 nM
CN(C)c1ccc(/C=C/c2nc3c(c(=O)n(C)c(=O)n3C)n2C)cc1	9270 nM
COc1cccc2cc(-c3nc4c(c(=O)n(C)c(=O)n4C)n3C)oc12	4740 nM
COc1ccc(/C=C/c2nc3c(=O)n(C)c(=O)n(C)c3[nH]2)c(OC)c1OC	1610 nM

target: Adenosine A2 receptor (Rattus norvegicus) (UniProt P29276+P30543); assay: Binding affinity against Adenosine A2 receptor in rat brain using [3H]- CGS 21680; type: tissue-based; details: concentration not given here

Compound	inhibition
COc1cc(/C=C/c2nc3c(c(=O)n(C)c(=O)n3C)n2CCO)cc(OC)c1OC	22%

target: T2, Adenosine receptor A1 (Rattus norvegicus) (UniProt P25099); assay: Binding affinity against Adenosine A1 receptor in rat brain using [3H]- PIA; type: tissue-based; details: concentration not given here
T2 sequence (whole entry): T1 sequence (P25099 whole entry)

Compound	inhibition
COc1cc(/C=C/c2nc3c(c(=O)n(C)c(=O)n3C)n2C)cc(OC)c1	12.5%
COc1cc(/C=C/c2nc3c(c(=O)n(C)c(=O)n3C)n2C)cc(OC)c1OC/C=C/CNC(=O)OC(C)(C)C	11%
Cn1c(=O)c2c(nc(CCc3cccc(N)c3)n2C)n(C)c1=O	15%
COc1cc(/C=C/c2nc3c(c(=O)n(C)c(=O)n3C)n2C)cc(OC)c1OC/C=C/CNC(C)=O	17%
COc1cc(/C=C/c2nc3c(c(=O)n(C)c(=O)n3C)n2CCO)cc(OC)c1OC	26%
CN(C)c1ccc(/C=C/c2nc3c(c(=O)n(C)c(=O)n3C)n2C)cc1	5.6%
COc1ccc(/C=C/c2nc3c(=O)n(C)c(=O)n(C)c3[nH]2)c(OC)c1OC	26%
